Source: patent publication US4148795A, “Dithiocarbamate ester bactericides and fungicides” (American Cyanamid Company, priority 1976, dated 1979)
Where “and” joins values, the source holds several entries; their conditions need not be identical. Equal values may be shown once. Read-outs that look alike come from different tables or passages of the source.

What was measured:
Monilinia fructicola [1] = test: Spore germination inhibition; type: cell-based; settings: for inhibition at 1 ppm / inhibition at 10 ppm: 24 hours; for inhibition at 100 ppm: 24 h, read-out: % Inhibition of Spore Germination
Text: (§1) The test procedure involves the preparation of a 100, 10 or 1 ppm. suspension of test compound in water. The solutions are placed in one dram "opticlear" vials and separately inoculated with one drop of a spore suspension prepared from seven-day cultures of Aspergillus niger and 14-day old cultures of Monilinia fructicola and Stemphylium sarcinaeforme,all grown on potato-dextrose agar. The vials containing the separately inoculated solutions of test compounds are then capped and placed on a rotating tumbler for 24 hours to assure contact of the organism with the test compound. After 24 hours, the vials are removed and examined for inhibition of […].

Aspergillus niger [2] = test: Spore germination inhibition; type: cell-based; settings: 24 hours
Text: as §1

[3] = system: Stemphylium sarcinaeforme; test: Spore germination inhibition; type: cell-based; settings: Stemphylium sarciniforme; for inhibition at 100 ppm: 24 h, read-out: % Inhibition of Spore Germination; for inhibition at 1 ppm / inhibition at 10 ppm: 24 hours
Text: as §1

[4] = system: Collectotrichum lagenarium; test: Agar dilution plate; type: cell-based; settings: Cl; 100 ppm, 72 hours at 23° C
Description: (§2) Test compounds were incorporated in a Sabouraud's dextrose agar in an amount sufficient to provide the active ingredient in a concentration of about 100 ppm. A twenty-ml. sample of the agar mixture is placed in a petri dish and permitted to solidify. An agar sample is inoculated with the test organism set forth below and then covered and incubated for a period of about 72 hours at 23° C. After incubation, growth observations are made. The test results are recorded and the test is repeated twice for the purpose of comparison.
(§3) The data obtained with a variety of test organisms is shown in the table below, and ratings are shown as 0 or 5. O indicates no control, 5 indicates 100% effectiveness of the test compound against the specified organism.
Cl= Collectotrichum lagenarium

Pseudomonas solaracaerum = type: cell-based
Xanthomonas vesicatoria = type: cell-based; settings: 100 ppm; subcultures 72 hours at 37° C; further: key: 0: No Effect; 9: Kill of Bacteria; 5: Stasis, but not Kill of all Bacteria
Staphylococcus aureus = type: cell-based; settings: 100 ppm; subcultures 72 hours at 37° C; further: key: 0: No Effect; 9: Kill of Bacteria; 5: Stasis, but not Kill of all Bacteria
[5] = system: Stemphylium sarcinaeforme; test: Agar dilution plate; type: cell-based; settings: Ss; 100 ppm, 72 hours at 23° C
Description: as §2, §3
Ss= Stemphylium sarcinaeforme

Verticillium albo-atrum = test: Agar dilution plate; type: cell-based; settings: Va; 100 ppm, 72 hours at 23° C
Description: as §2, §3
Va= Verticillium albo-atrum

Aerobacter aerogenes = type: cell-based; settings: 100 ppm; subcultures 72 hours at 37° C; further: key: 0: No Effect; 9: Kill of Bacteria; 5: Stasis, but not Kill of all Bacteria
Pythium de Baryanum = test: Agar dilution plate; type: cell-based; settings: Pd; 100 ppm, 72 hours at 23° C
Description: as §2, §3

Rhizoctonia solani = test: Agar dilution plate; type: cell-based; settings: Rs; 100 ppm, 72 hours at 23° C
Description: as §2, §3

Monilinia fructicola [6] = test: Agar dilution plate; type: cell-based; settings: Mf; 100 ppm, 72 hours at 23° C
Description: as §2, §3

Aspergillus niger [7] = test: Agar dilution plate; type: cell-based; settings: An; 100 ppm, 72 hours at 23° C
Description: as §2, §3

Fusarium lycopersici = test: Agar dilution plate; type: cell-based; settings: Fl; 100 ppm, 72 hours at 23° C
Description: as §2, §3

Piricularia oryzae = type: in vivo; parameters: scale not given here; settings: Rice Blast, five days
Phytophthora infestans = type: in vivo; parameters: scale not given here; settings: Tomato Late Blight, five days
Venturia inaequalis = settings: in vivo; further: key: 5: clean, no disease; 4: trace of disease; 3: slight disease; 2: moderate disease; 1: severe disease; 0: like controls

Structure (SMILES)	inhibition at 1 ppm (Monilinia fructicola [1]) [%]	inhibition at 10 ppm (Monilinia fructicola [1]) [%]	inhibition at 100 ppm (Monilinia fructicola [1]) [%]	inhibition at 1 ppm (Aspergillus niger [2]) [%]	inhibition at 10 ppm (Aspergillus niger [2]) [%]	inhibition at 100 ppm (Aspergillus niger [2]) [%]	inhibition at 100 ppm [3] [%]	inhibition at 1 ppm [3] [%]	Agar Dilution Plate rating [4]	Agar Dilution Plate rating (Pseudomonas solaracaerum; 100 ppm, 72 hours at 23° C)	Antibacterial Activity rating (Xanthomonas vesicatoria)	Antibacterial Activity rating (Staphylococcus aureus)	Agar Dilution Plate rating [5]	Agar Dilution Plate rating (Verticillium albo-atrum)	Antibacterial Activity rating (Aerobacter aerogenes)	Agar Dilution Plate rating (Pythium de Baryanum)	Agar Dilution Plate rating (Rhizoctonia solani)	Agar Dilution Plate rating (Monilinia fructicola [6])	Agar Dilution Plate rating (Aspergillus niger [7])	Agar Dilution Plate rating (Fusarium lycopersici)	further results
CCC(CSC(=S)N(C)C)[N+](=O)[O-] (stereo not drawn) [Example 6, 2-Nitrobutyl Dimethyldithiocarbamate]	100	100	100	0	100	100	100	100	5 (100% effectiveness of the test compound against the specified organism)	0	9	9	5 (100% effectiveness of the test compound against the specified organism)	5 (100% effectiveness of the test compound against the specified organism)	9	5 (100% effectiveness of the test compound against the specified organism)	5 (100% effectiveness of the test compound against the specified organism)	5 (100% effectiveness of the test compound against the specified organism)	5 (100% effectiveness of the test compound against the specified organism)	5 (100% effectiveness of the test compound against the specified organism)	inhibition at 10 ppm [3]: 100%
CC(=O)C(CSC(=S)N(C)C)=C(C)O [Example 9, 2-(1-Hydroxyethylidene)-3-oxobutyl Dimethyldithiocarbamate]	0	0	100	0	0	100	100	0	5 (100% effectiveness of the test compound against the specified organism)	0	0	5	0	0	0	0	0	0	0	0	inhibition at 10 ppm [3]: 0%; disease control index (Piricularia oryzae; 150 ppm): 0; disease control index (Piricularia oryzae; 300 ppm): 2; disease control index (Piricularia oryzae; 600 ppm): 3; disease control index (Piricularia oryzae; 1200 ppm): 4
CC(=O)C(CSC(=S)N(C)C)SC(=S)N(C)C (stereo not drawn) [Example 10, Acetylethylene Dimethyldithiocarbamate]	100	100	100	100	100	100	100	100	5 (100% effectiveness of the test compound against the specified organism)	–	5	9	5 (100% effectiveness of the test compound against the specified organism)	5 (100% effectiveness of the test compound against the specified organism)	9	5 (100% effectiveness of the test compound against the specified organism)	5 (100% effectiveness of the test compound against the specified organism)	5 (100% effectiveness of the test compound against the specified organism)	5 (100% effectiveness of the test compound against the specified organism)	5 (100% effectiveness of the test compound against the specified organism)	inhibition at 10 ppm [3]: 100%; disease control index (Piricularia oryzae; at 75 ppm): 4; disease control index (Piricularia oryzae; at 500 ppm): 5; Agar Dilution Plate rating (Pseudomonas solaracaerum): 0; disease control index (Phytophthora infestans; at 100 ppm): 4; disease control index (Phytophthora infestans; at 500 ppm): 5
CN(C)C(=S)SCC(SC(=S)N(C)C)C(=O)c1ccccc1 (stereo not drawn) [Example 11]	–	–	–	–	–	–	–	–	5 (100% effectiveness of the test compound against the specified organism)	0	0	5	0	0	0	0	0	5 (100% effectiveness of the test compound against the specified organism)	0	0	disease control index (Piricularia oryzae; at 75 ppm): 3; disease control index (Piricularia oryzae; at 500 ppm): 4; disease control index (Phytophthora infestans; at 100 ppm): 3; disease control index (Phytophthora infestans; at 500 ppm): 4; disease control index (Venturia inaequalis): 5
CN(C)C(=S)SC(C[N+](=O)[O-])c1ccc(Cl)cc1Cl (stereo not drawn) [Example 17, 2,4-Dichloro-α-(nitromethyl)benzyl Dimethyldithiocarbamate]	–	–	–	–	–	–	–	–	5 (100% effectiveness of the test compound against the specified organism)	0	0	5	0	5 (100% effectiveness of the test compound against the specified organism)	0	0	0	0	0	0	disease control index (Piricularia oryzae; 150 ppm): 3; disease control index (Piricularia oryzae; 300 ppm): 5; disease control index (Piricularia oryzae; 600 ppm): 5; disease control index (Piricularia oryzae; 1200 ppm): 5; disease control index (Phytophthora infestans; 150 ppm): 0; disease control index (Phytophthora infestans; 300 ppm): 4; disease control index (Phytophthora infestans; 600 ppm): 5; disease control index (Phytophthora infestans; 1200 ppm): 5; disease control index (Venturia inaequalis): 5 and 0
CN(C)C(=S)SC(C[N+](=O)[O-])c1cccc2ccccc12 (stereo not drawn) [Example 31, 1-Naphthyl-2-nitroethyl Dimethyldithiocarbamate]	0	0	100	0	0	100	100	0	5 (100% effectiveness of the test compound against the specified organism)	0	–	–	5 (100% effectiveness of the test compound against the specified organism)	5 (100% effectiveness of the test compound against the specified organism)	–	5 (100% effectiveness of the test compound against the specified organism)	5 (100% effectiveness of the test compound against the specified organism)	5 (100% effectiveness of the test compound against the specified organism)	0	0	inhibition at 10 ppm [3]: 0%; disease control index (Piricularia oryzae; at 75 ppm): 4; disease control index (Piricularia oryzae; at 500 ppm): 5; disease control index (Phytophthora infestans; at 100 ppm): 5; disease control index (Phytophthora infestans; at 500 ppm): 5; disease control index (Venturia inaequalis): 4
